Test results published in ChEMBL document CHEMBL1201862, “PubChem BioAssay data set” (2004).
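In this assay, cells in 96-well plates receive the compound at five concentrations for 48 hours. Endpoints are linearly interpolated between the surrounding concentrations. The concentration for 50% growth inhibition is given as GI50.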 Active and inactive are the calls of the source. Cut-off read from the data, not from the text of the source: active = GI50 up to about 1.1 µM and inactive = higher.

Key:
Assay in all cases: growth of human tumour cells (NCI), 48 h
SK-MEL-2 = system: SK-MEL-2
SN12C = system: SN12C
LOX IMVI = system: LOX IMVI
HL-60 = system: HL-60
HT-29 = system: HT-29
SW-620 = system: SW-620
SK-MEL-28 = system: SK-MEL-28
SF-295 = system: SF-295
SK-MEL-5 = system: SK-MEL-5
NCI-H460 = system: NCI-H460
OVCAR-5 = system: OVCAR-5
UO-31 = system: UO-31
SF-268 = system: SF-268
K562 = system: K562
CCRF-CEM = system: CCRF-CEM
MOLT-4 = system: MOLT-4
A549 = system: A549
COLO 205 = system: COLO 205
OVCAR-8 = system: OVCAR-8
HCT-116 = system: HCT-116

Measured: GI50

O=C(N/N=C/C=C/c1ccc([N+](=O)[O-])o1)c1ccc(Br)s1
inactive: SK-MEL-2 23.3 µM | SN12C 29.6 µM | LOX IMVI 19.9 µM | HL-60 34.1 µM | HT-29 17 µM | SW-620 16.1 µM | SK-MEL-28 22.4 µM | SF-295 > 100 µM | SK-MEL-5 18.6 µM | NCI-H460 42.7 µM | OVCAR-5 26.3 µM | UO-31 21 µM | SF-268 28.8 µM | K562 24.5 µM | CCRF-CEM 9.2 µM | MOLT-4 13.3 µM | A549 82.8 µM | COLO 205 17 µM | OVCAR-8 16.9 µM | HCT-116 3.48 µM
